Laboratory results as given in patent US5721208A, “Glycopeptides a process for their preparation and their use” (Hoechst Aktiengesellschaft, priority 1991, dated 1998).

Tests used:
[1] = system: Staph. aureus SG 511; experiment: Minimum bacteriostatic inhibitory concentration, Agar dilution method; type: cell-based
[2] = system: Staph. aureus 285; experiment: as above; type: cell-based
[3] = system: Staph. aureus 503; experiment: as above; type: cell-based
[4] = system: Strept. pyogenes 308 A; experiment: as above; type: cell-based
[5] = system: Strept. pyogenes 77 A; experiment: as above; type: cell-based
[6] = system: Strept. faecium D; experiment: as above; type: cell-based
[7] = system: Escherichia coli DC 2; experiment: as above; type: cell-based
[8] = system: Bact. fragilis 312; experiment: as above; type: cell-based
[9] = system: Bact. fragilis 960; experiment: as above; type: cell-based
[10] = system: Bact. fragilis 1313; experiment: as above; type: cell-based
[11] = system: Bact. vulgatus 1446; experiment: as above; type: cell-based
[12] = system: Peptostrept. anaerob. 932; experiment: as above; type: cell-based
[13] = system: Propioni acnes 6916; experiment: as above; type: cell-based
[14] = system: Propioni acnes 6922; experiment: as above; type: cell-based
[15] = system: Clostridium tetani ATCC 1940650; conditions: Agar dilution method
[16] = system: Clostridium perfringens 194; conditions: Agar dilution method

Measured: Minimum bacteriostatic inhibitory concentration

CNC(CC(C)C)C(=O)NC1C(=O)NC(CC(N)=O)C(=O)NC2C(=O)NC3C(=O)NC(C(=O)NC(C(=O)O)c4cc(O)cc(O)c4-c4cc3ccc4O)C(OC3CC(C)(N)C(=O)C(C)O3)c3ccc(c(Cl)c3)Oc3cc2cc(c3O)Oc2ccc(cc2Cl)C1O (stereo not shown) [Desglucobalhimycin, desglucobalhimycin]
> 100 micrograms per milliliter: [7] | [11]
0.4 micrograms per milliliter: [12] | [15]
0.1 micrograms per milliliter: [3] | [4] | [5] | [16]
25 micrograms per milliliter: [8] | [9] | [10]
0.2 micrograms per milliliter: all other assays above
